Data: patent US9833445B2, “5-deutero-2,4-thiazolidinedione derivatives and compositions comprising and methods of using the same” (DeuteRx, LLC, priority 2013, dated 2017)

How the values were obtained:
[1] = In vitro stability (D/H exchange, enantiomerization, degradation) in human plasma; assay type: in vitro ADME; settings: 37° C.; for half-life: human, plasma (K3EDTA), calculated half-life
Description: (§1) (+)-5-({p-[2-(5-ethylpyridin-2-yl)-2-oxoethoxy]phenyl}methyl)-1,3-thiazolidine-2,4-dione, (−)-5-({p-[2-(5-ethylpyridin-2-yl)-2-oxoethoxy]phenyl}methyl)-1,3-thiazolidine-2,4-dione, rac-5-({p-[2-(5-ethylpyridin-2-yl)-2-oxoethoxy]phenyl}methyl)-(5-^2H))-1,3-thiazolidine-2,4-dione (>98% deuterium at C-5 of the 1,3-thiazolidine-2,4-dione moiety; 50:50 racemic mixture of (+)- and (−)-deuterated enantiomers) were incubated in CD-1 mouse plasma (K3EDTA as anticoagulant) or human plasma (K3EDTA as anticoagulant) at 37° C. in duplicates. Aliquots (50 μL) were removed at t=0, 0.0833, 0.25, 0.5, 1, 2, 4, 8, and 16 hours and added to micro centrifuge tubes containing 10 μL of 5% w/v zinc sulfate heptahydrate in water. Samples were frozen and stored until the study was complete. After thawing on ice, 10 μL of internal standard (ISTD) spiking solution (d4-pioglitazone in acetonitrile/water 1:1) were added followed by 250 μL of methyl t-butyl ether (MTBE). A 100 μL aliquot of the organic layer was evaporated after homogeneization and reconstituted in 100 μL of 95:5 acetonitrile/0.1% formic acid in water (v/v).
(§2) The samples were analyzed semi-quantitatively by LC/MS-MS with elution on a chiral column (Daicel ChiralPak ID-3) for the separation of enantiomers (isocratic method of 5:95 v/v 0.1% formic acid in water and acetonitrile). Peak areas for the protonated and deuterated enantiomers were calculated and normalized to the area of the ISTD. Peak areas for the deuterated enantiomers (+)-5-({p-[2-(5-ethylpyridin-2-yl)-2-oxoethoxy]phenyl}methyl)-(5-2H)-1,3-thiazolidine-2,4-dione and (−)-5-({p-[2-(5-ethylpyridin-2-yl)-2-oxoethoxy]phenyl}methyl)-(5-^2H)-1,3-thiazolidine-2,4-dione were further corrected for the isotopic peak of the corresponding protonated enantiomer, (+)- and (−)-5-({p-[2-(5-ethylpyridin-2-yl)-2-oxoethoxy]phenyl}methyl)-1,3-thiazolidine-2,4-dione respectively, if present. Corrected data were analyzed and plotted using Microsoft Excel 2013 (Microsoft Corp, Redmond, Wash.) and the Excel Solver.
(§3) Scheme 3 illustrates the possible reactions in a solution of a deuterated racemate. The deuterium at the chiral center of both enantiomers, d+ and d−, can be depleted by D/H exchange to give both protonated enantiomers, h+ and h− with rate constants kD++, kD+−, kD−+, kD−. At the same time, the protonated enantiomers h+ and h−, can exchange, with enantiomerization rate constants k+− and k−+. All four compounds can also degrade with potentially different degradation rate constants kh+d, kh−d, kd+d, kd−d for enantiomers h+, h−, d+, and d−, respectively.
(§4) Human plasma stability data and mouse plasma stability data were analyzed independently. Concurrent analysis of the data for h+, h−, and deuterated racemate was performed. Calculated concentrations were obtained through numerical approximation of differential equations (1) and (2) for the stability studies of h+ and h- and equations (3) to (6) for the stability study of deuterated racemate (50:50 d+:d−) by the Euler method (equation (7)). The step between calculated time points was minimized in order to minimize the local error (proportional to the square of the step size) and the global error (proportional to the step size). […] Data analysis was performed in Microsoft Excel 2013, using the Solver Generalized Reduced Gradient Nonlinear method with central derivatives to minimize the sum of sums of weighted Δ^2, square of difference between ISTD-normalized experimental data and calculated value, divided by the calculated value.
(§5) [formula] [formula] [formula] [formula] where [h+], [h−], [d+], [d−] are the concentrations on both protonated and deuterated enantiomers, k+− and k−+ are the rate constants for the enantiomerization reactions h+ to h− and h− to h+ respectively, kD++, kD+−, kD−+, and kD− are the rate constants for the D/H exchange reactions d+ or d− to h+ or h−, and kd is the rate constant for the degradation of all four compounds. […]

[2] = In vitro stability (D/H exchange, enantiomerization, degradation) in CD-1 mouse plasma; assay type: in vitro ADME; settings: 37° C.; for half-life: CD-1, mouse, plasma (K3EDTA), calculated half-life
Description: as §1, §2, §3, §4, §5

[3] = read-out: t1/2 degradation (converted)
[4] = read-out: t1/2 enantiomerization +− (h+ to h−) (converted)
[5] = read-out: t1/2 enantiomerization −+ (h− to h+) (converted)

Row | k +− (rate constant, enantiomerization h+ to h−) ([1]; fitted to Equations 1 to 6) [h⁻¹] | k d (rate constant, degradation; assumed equal for all four compounds) ([1]; fitted to Equations 1 to 6) [s⁻¹] | half-life [1, 3] [h] | half-life [1, 4] [h] | k +− (rate constant, enantiomerization h+ to h−) ([2]; fitted to Equations 1 to 6) [h⁻¹] | k d (rate constant, degradation; assumed equal for all four compounds) ([2]; fitted to Equations 1 to 6) [s⁻¹] | half-life [2, 3] [h] | half-life [2, 4] [h] | k −+ (rate constant, enantiomerization h− to h+) ([1]; fitted to Equations 1 to 6) [h⁻¹] | half-life [1, 5] [h] | k −+ (rate constant, enantiomerization h− to h+) ([2]; fitted to Equations 1 to 6) [h⁻¹] | half-life [2, 5] [h] | SMILES
1 | 0.308 | 1.05e-06 | 184 | 2.2 | 0.504 | 4.25e-06 | 45.4 | 1.4 |  |  |  |  | CCc1ccc(C(=O)COc2ccc(CC3SC(=O)NC3=O)cc2)nc1 (single isomer, unassigned; (+)) [h+, (+)-5-({p-[2-(5-ethylpyridin-2-yl)-2-oxoethoxy]phenyl}methyl)-1,3-thiazolidine-2,4-dione]
2 |  |  |  |  |  |  |  |  | 0.359 | 1.9 | 0.594 | 1.2 | CCc1ccc(C(=O)COc2ccc(CC3SC(=O)NC3=O)cc2)nc1 (single isomer, unassigned; (-)) [h−, (−)-5-({p-[2-(5-ethylpyridin-2-yl)-2-oxoethoxy]phenyl}methyl)-1,3-thiazolidine-2,4-dione]
3 |  | 1.05e-06 | 184 |  |  | 4.25e-06 | 45.4 |  |  |  |  |  | [2H]C1(Cc2ccc(OCC(=O)c3ccc(CC)cn3)cc2)SC(=O)NC1=O (racemic) [d-rac, rac-5-({p-[2-(5-ethylpyridin-2-yl)-2-oxoethoxy]phenyl}methyl)-(5-^2H)-1,3-thiazolidine-2,4-dione]
